Measurements: patent US20130131321A1, “LIGANDS FOR ANTIBODY AND Fc-FUSION PROTEIN PURIFICATION BY AFFINITY CHROMATOGRAPHY” (GRAFFINITY PHARMACEUTICALS GMBH, priority 2010, published 2013)
Read-outs that look alike come from different tables or passages of the source.

What was measured:
[1] = tested on: host cell proteins (HCP); assay: Microtiter plate chromatography of resins, host cell proteins (bound); assay type: binding, CHO; conditions: host cell proteins
Procedure: Flowthrough from protein A chromatography (referred to as host cell proteins) was derived from the supernatant of antibody-producing CHO cell culture in serum-free medium.
(§1) Resins were assessed in packed mode by microtiter plate chromatography. For each column, approximately 30 μl of resin were transferred to a 384-well filter plate and sealed with appropriate top frits.
(§2) Columns were equilibrated with 6.7 column volumes (cv) of phosphate buffered saline (0.15 M NaCl, 20 mM sodium phosphate, pH 7.3; PBS) prior to injection. Either 3.3 cv of whole IgGs dissolved at 0.75 mg ml^−1, Fab or Fc fragments dissolved at 0.25 mg ml^−1 (all three in PBS) or host cell proteins (HCP) were injected onto columns. Antibody fragments of Bevacizumab (Fab and Fc) were prepared by cleavage of whole IgG with papain protease (3) according to the protocol of the manufacturer. […] Volumes transferred were spun through columns at 50 g for 1-2 min. During injection of samples, acceleration was reduced to 10 g and centrifugation time increased to 5-10 min. Effluent fractions were collected in 384-well plates and concentrations of protein analyzed by Bradford assay. Protein masses mi, mft and me (see below) were calculated as the product of fraction volume and measured protein concentration.
(§3) The fraction of ‘bound’ protein was calculated as the difference between the total mass of protein injected mi and the mass of protein detected in the flowthrough mft, divided by the total mass of protein injected.
(§4) the fraction of ‘bound’ protein and the ‘yield’ of protein were calculated for each resin based on data for whole IgG-antibodies. In the case of Bevacizumab fragments and host cell proteins, only the fraction of ‘bound’ protein is given. Selectivity of resins was calculated from data for Bevacizumab Whole IgG and host cell proteins. Due to limited experimental precision, selectivity was truncated beyond values of 10.

[2] = tested on: Palivizumab; assay: Microtiter plate chromatography of resins, Palivizumab (bound, yield); assay type: binding, humanized
Procedure: as §1, §2, §3
(§5) The ‘yield’ of protein was calculated as the mass of protein eluted me, divided by the mass of protein injected mi.
as §4

[3] = tested on: Tocilizumab; assay: Microtiter plate chromatography of resins, Tocilizumab (bound, yield); assay type: binding, humanized
Procedure: as §1, §2, §3, §5, §4

[4] = target: T1, Bevacizumab (Homo sapiens, UniProt P01857); assay: Microtiter plate chromatography of resins, Bevacizumab whole IgG (bound, yield, selectivity); assay type: binding, humanized; conditions: for Bevacizumab IgG Bound (%): fraction of whole IgG Bevacizumab bound to resin; for Bevacizumab IgG Yield (%): mass of whole IgG Bevacizumab eluted / mass injected
T1 construct: fused on or other part: humanised anti-VEGF-A VH domain N-terminal of the gamma-1 constant region (engineered, no UniProt entry)
Procedure: as §1, §2, §3, §5
(§6) The ‘selectivity’ of resins was calculated as the fraction of bound antibody BAb, divided by the fraction of bound host cell proteins BHCP.
as §4

[5] = tested on: Bevacizumab; assay: as above; assay type: binding, humanized
Procedure: as §1, §2, §3, §5, §6, §4

[6] = tested on: human poly-IgG (h-poly-IgG); assay: Microtiter plate chromatography of resins, human poly-IgG (bound, yield); assay type: binding
Procedure: as §1, §2, §3, §5, §4

[7] = fraction of bound Bevacizumab whole IgG / fraction of bound HCP, truncated beyond values of 10

SMILES	HCP Bound (%) [1]	Palivizumab Bound (%) [2]	Palivizumab Yield (%) [2]	Tocilizumab Bound (%) [3]	Tocilizumab Yield (%) [3]	Bevacizumab IgG Bound (%) [4]	Bevacizumab IgG Yield (%) [4]	Selectivity [5]	h-poly-IgG Bound (%) [6]	h-poly-IgG Yield (%) [6]	Selectivity [5, 7]
COc1ccc(NC(=O)c2nn(CC(O)CO)c3ccccc23)cc1C(=O)NCCCN (racemic) [Ligand L40, (RS)-5-[1-(2,3-Dihydroxy-1-propyl)indazol-3-ylcarboxamido]-2-methoxybenzoic acid (3-amino-1-propyl)amide]	22%	62%	62%	90%	90%	100%	100%	4.5	98%	97%	
COc1ccc(NC(=O)c2cc(-c3cc(C)sc3C)n(C)n2)cc1C(=O)NCCCN [Ligand L3, 5-[5-(2,5-Dimethyl-3-thienyl)-1-methylpyrazol-3-yl]carboxamido-2-methoxybenzoic acid N-(3-aminopropyl)amide]	62%	100%	93%	97%	95%	100%	89%	1.4	102%	72%	
COc1ccc(NC(=O)c2cc(-c3cccc(Cl)c3)n(C)n2)cc1C(=O)NCCCN [Ligand L7, 5-[5-(3-Chlorophenyl)-1-methylpyrazol-3-yl]carboxamido-2-methoxybenzoic acid N-(3-aminopropyl)amide]	70%	100%	99%	92%	109%	100%	110%	1.4	100%	91%	
Cc1c(NC(=O)c2cc(-c3cccs3)n(C)n2)cccc1C(=O)NCCCN [Ligand L9, 2-Methyl-3-[1-methyl-5-(2-thienyl)pyrazol-3-yl]carboxamidobenzoic acid N-(3-aminopropyl)amide]	58%	41%	33%	71%	64%	100%	91%	1.7	65%	53%	
Cc1ccc(C(=O)NCCCN)cc1NC(=O)c1cc(-c2cccs2)n(C)n1 [Ligand L10, 4-Methyl-3-[1-methyl-5-(2-thienyl)pyrazol-3-yl]carboxamidobenzoic acid N-(3-aminopropyl)amide]	68%	59%	62%	86%	73%	100%	91%	1.5	72%	60%	
COc1ccc(NC(=O)c2cncc(-c3ccccc3)c2)cc1C(=O)NCCCN [Ligand L11, 2-Methoxy-5-(3-phenylpyridin-5-yl)carboxamidobenzoic acid N-(3-aminopropyl)amide]	56%	78%	75%	100%	89%	95%	94%	1.7	89%	79%	
COc1ccc(NC(=O)c2cn3ccsc3n2)cc1C(=O)NCCCC[C@H](NC(=O)c1cc(NC(=O)c2cn3ccsc3n2)ccc1OC)C(=O)NCCCN [Ligand L49, (S)-2,6-Bis[5-(Imidazo[2,1-b]thiazol-6-ylcarboxamido)-2-methoxyphenylcarboxamido]hexanoic acid (3-amino-1-propyl)amide]	17%			99%	97%	100%	88%		88%	88%	6.1
COc1ccc(NC(=O)c2cn3ccsc3n2)cc1C(=O)NCCOCCOCC(=O)NCCCC[C@H](NC(=O)COCCOCCNC(=O)c1cc(NC(=O)c2cn3ccsc3n2)ccc1OC)C(=O)NCCCN [Ligand L50, (S)-2,6-Bis{8-[5-(Imidazo[2,1-b]thiazol-6-ylcarboxamido)-2-methoxyphenylcarboxamido]-3,6-dioxaoctanoylamido}hexanoic acid (3-amino-1-propyl)amide]	15%			100%	100%	100%	92%		91%	91%	6.9
COc1ccc(NC(=O)c2nn(C)c3ccccc23)cc1C(=O)NCCOCCOCC(=O)NCCCN [Ligand L60, 8-[2-Methoxy-5-(1-methylindazol-3-ylcarboxamido)phenylcarboxamido]-3,6-dioxaoctanoic acid (3-amino-1-propyl)amide]	30%			93%	93%	100%	82%	3.3	95%	94%	
COc1ccc(NC(=O)c2cn3ccsc3n2)cc1C(=O)NCCCNC(=O)CC[C@H](N)C(=O)NCCCNC(=O)c1cc(NC(=O)c2cn3ccsc3n2)ccc1OC [Ligand L64, (S)-1-Aminopropane-1,3-dicarboxylic acid bis{3-[5-(imidazo[2,1-b]thiazol-6-ylcarboxamido)-2-methoxyphenylcarboxamido]propyl}amide]	36%			99%	99%	100%	93%		100%	97%	2.8
